Measurements published in patent US20200368193A1 (Concert Pharmaceuticals, Inc., priority 2017, published 2020).
Where two headings read alike, the source gives them in different places. Values belong to the molecule of their own block, whether it stands above or below them.

Experiments:
[1] = Pharmacokinetics dose response of non-deuterated D-serine, 30-300 mg/kg PO (Example 4); type: in vivo, male Sprague-Dawley rats; settings: plasma; for Cmax / AUC(0-inf): (CV %)
Source text: (§1) The pharmacokinetic profile of non-deuterated D-serine was investigated in male Sprague-Dawley rats. […] Plasma was collected and analyzed for the non-deuterated D-serine. Additional blood was collected and analyzed for the full clinical chemistry profile.

[2] = Pharmacokinetics of non-deuterated D-serine after a 300 mg/kg PO dose (Example 2); type: in vivo, Male Sprague-Dawley Rats; settings: male, Sprague-Dawley, rat; for concentration at 1 h: oral, 300 mg/kg, 1 hour (in Example 2); for concentration at 1 h / concentration at 8 h: mean
Method: (§2) The hippocampus, cortex and plasma were collected and analyzed. Additional blood was collected and were analyzed for the full clinical chemistry profile. Urine was also collected and examined for glucose and total protein. […] The mean plasma, hippocampus, and cortex concentration at 1 hour are 19200 ng/mL, 674 ng/g, and 754 ng/g; respectively. The mean plasma, hippocampus, and cortex concentrations at 8 hours were 11250 ng/mL, 17725 ng/g, and 11875 ng/g, respectively. […] Blood urea nitrogen and creatinine levels were elevated.

[3] = system: Male Sprague-Dawley Rats; assay: Nephrotoxicity of non-deuterated D-serine at 300 mg/kg PO (Example 2); type: in vivo
Method: as §2

[4] = system: Male Sprague-Dawley Rats; assay: Nephrotoxicity dose response of non-deuterated D-serine, 30-300 mg/kg PO (Example 4); type: in vivo; settings: 24 hr samples at the 150 and 300 mg/kg doses, compared to control and reference values
Source text: as §1

[5] = system: rats; assay: Nephrotoxicity comparison at doses from 150 mg/kg to 750 mg/kg (dose escalation, FIGS. 7-10); type: in vivo; settings: for changes in BUN or creatinine: PO doses from 150 mg/kg to 750 mg/kg
[6] = biological target: T1, human NMDAR subunits GluN1 and GluN2A (Homo sapiens, UniProt Q05586); assay: NMDA receptor activation in automated patch clamp system (ScreenPatch); type: cell-based; settings: HEK293 cells, 0.003 to 10 μM, Compound 100 versus d-serine
T1 construct: expressed in transfected cells; host or cells: HEK293
Method: Peak current and steady state current were measured. The activity at the NMDA receptor was indistinguishable for the two compounds.

[7] = Pharmacokinetic profile of Compound 100 and non-deuterated D-serine after 150 mg/kg PO doses (Example 3); type: in vivo, male Sprague-Dawley rats; settings: for AUC(0-inf) / Cmax / Tmax / concentration at 4 h / concentration at 8 h / concentration at 24 h: male, Sprague-Dawley, rat; for concentration at 4 h / concentration at 8 h / concentration at 24 h: po
Source text: (§3) The pharmacokinetic profile of Compound 100 was investigated in male Sprague-Dawley rats compared with that of non-deuterated D-serine. […] Plasma was collected and analyzed for Compound 100 and non-deuterated D-Serine. Additional blood was collected and analyzed for the full clinical chemistry profile.

[8] = Pharmacokinetics of deuterated and non-deuterated D-serine, PO 10 mg/kg (Example 5); type: in vivo, male Sprague Dawley rats; settings: male, Sprague Dawley, rat, plasma, 0.5% Methylcellulose
Method: Three rats were used for each group. Blood was collected at the following time points: for IV dosing: pre-dose, 0.05, 0.167, 0.5, 1, 2, 4, 6, 8 and 12 hours post-dose; for PO dosing: pre-dose, 0.25, 0.5, 1, 2, 4, 6, 8 and 12 hours post-dose PO. Urine was collected at pre-dose (minimum 12 hours), 0-6, 6-12 and 12-24 hours. Plasma samples were analyzed and quantified for dosed compound LC-MS/MS.

[9] = system: Male Sprague-Dawley Rats; assay: Nephrotoxicity of Compound 100 and non-deuterated D-serine at 150 mg/kg PO (Example 3); type: in vivo
Source text: as §3

[10] = Plasma, hippocampus and cortex concentration of Compound 100 after a 30 mg/kg PO dose (Example 1); type: in vivo, male Sprague Dawley rats; settings: male, Sprague-Dawley, rat, mean
Method: The mean plasma, hippocampus, and cortex concentrations at 1 hour were 19200 ng/mL, 674 ng/g, and 754 ng/g, respectively. The mean plasma, hippocampus, and cortex concentrations at 6 hours were 1780 ng/mL, 1385 ng/g, and 936 ng/g, respectively.

[11] = Cortex versus plasma half-life of Compound 100 after 4 days of 100 mg/kg PO dosing (Example 11); type: in vivo, male Sprague-Dawley rats; settings: male, Sprague-Dawley, rat, 100 mg/kg PO once per day for 4 days
Method: After 4 days, tissues from perfused brain and plasma were collected and analyzed by LC-MS at 24 hours (group 1), 72 hours (group 2) and 120 hours (group 3) after dosing.

[12] = Brain distribution of Compound 100 after a single 100 mg/kg PO dose (Example 10); type: in vivo, male Sprague-Dawley rats; settings: male, Sprague-Dawley, rat, mean
Method: The distribution profile of Compound 100 was investigated in male Sprague-Dawley rats. […] At 24 hours after dosing, tissues from perfused brain and plasma were collected and analyzed by LC-MS.

[13] = cortex, read-out: Cortex concentration
[14] = hippocampus, read-out: Hippocampus concentration
[15] = plasma, read-out: Plasma concentration
[16] = dose escalation 150 mg/kg to 750 mg/kg
[17] = serum, D-serine at 24 hr, Compound 100 at 4, 8, and 24 hours
[18] = cortex, 150 mg/kg, mean, read-out: Cortex concentration
[19] = hippocampus, 150 mg/kg, mean, read-out: Hippocampus concentration
[20] = plasma, 150 mg/kg, mean, read-out: Plasma concentration

Tmax ([1]; male, Sprague-Dawley, rat, po, 30 mg/kg, 30 mg/kg PO): 30 min
Cmax ([1]; male, Sprague-Dawley, rat, po, 30 mg/kg, 30 mg/kg PO, read-out: Cmax): 24300 ng/mL
Tmax ([1]; male, Sprague-Dawley, rat, po, 75 mg/kg, 75 mg/kg PO): 30 min
Cmax ([1]; male, Sprague-Dawley, rat, po, 75 mg/kg, 75 mg/kg PO, read-out: Cmax): 54300 ng/mL
Tmax ([1]; male, Sprague-Dawley, rat, po, 100 mg/kg, 100 mg/kg PO): 30 min
Cmax ([1]; male, Sprague-Dawley, rat, po, 100 mg/kg, 100 mg/kg PO, read-out: Cmax): 96100 ng/mL
Tmax ([1]; male, Sprague-Dawley, rat, po, 150 mg/kg, 150 mg/kg PO): 18 min
Cmax ([1]; male, Sprague-Dawley, rat, po, 150 mg/kg, 150 mg/kg PO, read-out: Cmax): 180000 ng/mL
Tmax ([1]; male, Sprague-Dawley, rat, po, 300 mg/kg, 300 mg/kg PO): 30 min
Cmax ([1]; male, Sprague-Dawley, rat, po, 300 mg/kg, 300 mg/kg PO, read-out: Cmax): 216000 ng/mL
Tmax ([1]; male, Sprague-Dawley, rat, po, 300 mg/kg, all doses 30, 75, 100, 150, and 300 mg/kg PO): 18 to 30 min
AUC(0-inf) ([1]; male, Sprague-Dawley, rat, 30 mg/kg PO): 50.6 µg·h/mL
AUC(0-inf) ([1]; male, Sprague-Dawley, rat, 75 mg/kg PO): 148 µg·h/mL
AUC(0-inf) ([1]; male, Sprague-Dawley, rat, 100 mg/kg PO): 246 µg·h/mL
AUC(0-inf) ([1]; male, Sprague-Dawley, rat, 150 mg/kg PO): 349 µg·h/mL
AUC(0-inf) ([1]; male, Sprague-Dawley, rat, 300 mg/kg PO): 911 µg·h/mL
Cmax ([1]; 300 mg/kg PO, 300 mg/kg): 261000 (32.3%) ng/mL
concentration at 1 h [2, 13]: 754 ng/g
concentration at 8 h ([2]; cortex, 300 mg/kg PO, read-out: Cortex concentration): 11900 ng/g
concentration at 1 h [2, 14]: 674 ng/g
concentration at 8 h ([2]; hippocampus, 300 mg/kg PO, read-out: Hippocampus concentration): 17700 ng/g
concentration at 1 h [2, 15]: 19200 ng/mL
concentration at 8 h ([2]; plasma, 300 mg/kg PO, endogenous level subtracted, read-out: Plasma concentration): 11200 ng/mL
AUC(0-inf) ([2]; plasma, 300 mg/kg PO): 500 µg·h/mL
Cmax ([2]; plasma, 300 mg/kg PO): 268000 ng/mL
Tmax ([2]; plasma, 300 mg/kg PO): 30 min
half-life ([2]; plasma, 300 mg/kg PO): 218 min
activity at the NMDA receptor (peak current and steady state current) [6]: indistinguishable
AUC(0-inf) ([7]; plasma): 349 µg·h/mL
Cmax ([7]; plasma): 180000 ng/mL
Tmax ([7]; plasma): 20 min
AUC(0-inf) [8]: 13.2 µg·h/mL
Cmax [8]: 8780 ng/mL
Tmax [8]: 25 min
half-life [8]: 106 min
SMILES: N[C@H](CO)C(=O)O [Non-deuterated D-Serine, D-serine]
Blood urea nitrogen level [3]: elevated
creatinine level [3]: elevated
glucose in urine [3]: presence of glucose was observed
creatine level [4]: Elevated levels
gamma glutamyl transferase (GGT) level [4]: Elevated levels
urea nitrogen level [4]: Elevated levels
changes in BUN or creatinine [5]: increasingly elevated levels
gross signs of nephrotoxicity [5, 16]: observed
levels of biomarkers of nephrotoxicity [9]: caused an increase
blood urea nitrogen (BUN) level ([9]; serum, D-serine at 8 hr and 24 hr, Compound 100 at 4, 8, and 24 hours): Elevated levels
creatinine level [9, 17]: Elevated levels
gamma glutamyl transferase (GGT) level [9, 17]: Elevated levels

concentration at 1 h [10, 13]: 754 ng/g
concentration at 6 h [10, 13]: 936 ng/g
concentration at 1 h [10, 14]: 674 ng/g
concentration at 6 h [10, 14]: 1380 ng/g
concentration at 1 h [10, 15]: 19200 ng/mL
concentration at 6 h [10, 15]: 1780 ng/mL
half-life ([11]; cortex, read-out: half-life (T1/2) in the cortex (converted)): ~48 h
half-life ([11]; plasma, read-out: plasma T1/2): < 12 h
concentration at 24 h ([12]; brain stem, perfused brain, read-out: brain stem concentration): 721 ng/g
concentration at 24 h ([12]; cerebellum, perfused brain, read-out: cerebellum concentration): 290 ng/g
concentration at 24 h ([12]; cortex, perfused brain, read-out: cortex concentration): 4660 ng/g
concentration at 24 h ([12]; plasma, read-out: plasma concentration): 880 ng/mL
activity at the NMDA receptor (peak current and steady state current) [6]: indistinguishable
concentration at 4 h [7, 18]: 5070 ng/g
concentration at 8 h [7, 18]: 4040 ng/g
concentration at 24 h ([7]; cortex, 150 mg/kg, mean, 24 hr, read-out: Cortex concentration): 2420 ng/g
concentration at 4 h [7, 19]: 6160 ng/g
concentration at 8 h [7, 19]: 4340 ng/g
concentration at 24 h ([7]; hippocampus, 150 mg/kg, mean, 24 hr, read-out: Hippocampus concentration): 4200 ng/g
AUC(0-inf) ([7]; plasma): 383 µg·h/mL
Cmax ([7]; plasma): 186000 ng/mL
Tmax ([7]; plasma): 40 min
concentration at 4 h [7, 20]: 23300 ng/mL
concentration at 8 h [7, 20]: 2040 ng/mL
concentration at 24 h ([7]; plasma, 150 mg/kg, mean, 24 hr, read-out: Plasma concentration): 711 ng/mL
Hippocampus concentration ([7]; mean, 24 hr, 150 mg/kg): 4220 ng/g
AUC(0-inf) [8]: 21.5 µg·h/mL
Cmax [8]: 11400 ng/mL
Tmax [8]: 25 min
half-life [8]: 160 min
SMILES: [2H][C@@](N)(CO)C(=O)O [Compound 100, (2R)-2-amino-2-deutero-3-hydroxy-propanoic acid]
changes in BUN or creatinine [5]: minimal changes
exposure as measured by AUC and Cmax, versus non-deuterated D-serine [5, 16]: greater
gross signs of nephrotoxicity [5, 16]: not
levels of biomarkers of nephrotoxicity [9]: did not increase
